Columns and labels:
Assay type in all cases: in vivo
[1] = system: forage corn (cultivar: SNOW DENT OTOHA); assay: (19) Plant growth promotion effect test (corn), Italian ryegrass sown; details: 21st day after the sowing, above-ground part
Text: (§1) Upland soil was put in a 1/1,000,000 hectare pot, and seeds of Italian ryegrass (Lolium multiflorum) were sown. When the Italian ryegrass reached 3.2 to 3.7 leaf stage, a water-based suspension containing tiafenacil as the active ingredient, prepared by a conventional method for preparing a water-based suspension, and a wettable powder containing tri-allate as the active ingredient, prepared by a conventional method for preparing a wettable powder or an emulsifiable concentrate containing pethoxamid as the active ingredient (tradename: Successor 600, manufactured by Stähler Suisse SA) were diluted with water (in an amount corresponding to 200 liter per hectare) containing 0.5 vol % of an agricultural spreader (tradename: Destiny HC, manufactured by Winfield Solutions, LLC.) and sprayed by a small spray gun (model: W-101-132G, manufactured by ANEST IWATA Corporation). Seeds of forage corn (cultivar: SNOW DENT OTOHA, manufactured by SNOW BRAND SEED Co., Ltd.) were sown in the pot after spraying. On the 21st day after the sowing, the above-ground part of the forage corn was reaped, and its weight was measured to obtain the raw weight.

[2] = system: horseweed (Conyza canadensis); assay: (15) Herbicidal effect test, pot, spray at diameter of 13 to 19 cm; details: 3rd day after spraying
Text: (§2) [formula] • X: growth inhibition rate when treated with α (g/ha) of compound A, • Y: growth inhibition rate when treated with β (g/ha) of compound B, • E: growth inhibition rate expected when treated with α (g/ha) of compound A and β (g/ha) of compound B (expected value).
Upland soil was put in a 1/1,000,000 hectare pot, and seeds of horseweed (Conyza canadensis) were sown. When the horseweed reached a diameter of 13 to 19 cm, a water-based suspension containing tiafenacil as the active ingredient, prepared by a conventional method for preparing a water-based suspension, and a wettable powder containing tri-allate as the active ingredient, prepared by a conventional method for preparing a wettable powder, an emulsifiable concentrate containing pethoxamid as the active ingredient (tradename: Successor 600, manufactured by Stähler Suisse SA) or an emulsifiable concentrate containing dimethenamid-P as the active ingredient (tradename: Fieldstar P emulsifiable concentrate, manufactured by BASF) were diluted with water (in an amount corresponding to 200 liter per hectare) containing 0.5 vol % of an agricultural spreader (tradename: Destiny HC, manufactured by Winfield Solutions, LLC.) and sprayed by a small spray gun (model: W-101-132G, manufactured by ANEST IWATA Corporation). On the 3rd day after spraying, the state of growth of the horseweed was visually observed, and the growth inhibition rate (%) was obtained in accordance with the evaluation standards described in the above (1) herbicidal effect test, and the results are shown in Table 15. Further, the expected value of the growth inhibition rate (%) was calculated in accordance with the Colby's formula described in the above (1) herbicidal effect test, and the results are also shown in Table 15.

[3] = system: forage corn (cultivar: SNOW DENT OTOHA); assay: (18) Plant growth promotion effect test (corn), Italian ryegrass sown; details: 21st day after the sowing, above-ground part
Text: as §1, with “2.7” for “3.2”, “3.1” for “3.7”, “and” for “and a wettable powder containing tri-allate as the active ingredient, prepared by a conventional method for preparing a wettable powder or”, “S-metolachlor” for “pethoxamid”, “Dual Gold,” for “Successor 600,”, “Syngenta), a wettable powder containing metribuzin as the active ingredient (tradename: SENCOR wettable powder, manufactured by Bayer Crop Science) or water dispersible granules containing pyroxasulfone as the active ingredient (tradename: Sakura, manufactured by Bayer Crop Science)” for “Stähler Suisse SA)”

[4] = system: wheat (cultivar: Norin 61); assay: (21) Plant growth promotion effect test (wheat), Italian ryegrass sown; details: 22nd day after the sowing, above-ground part
Text: Upland soil was put in a 1/1,000,000 hectare pot, and seeds of Italian ryegrass (Lolium multiflorum) were sown. When the Italian ryegrass reached 3.3 to 3.8 leaf stage, a water-based suspension containing tiafenacil as the active ingredient, prepared by a conventional method for preparing a water-based suspension, and a wettable powder containing metribuzin as the active ingredient (tradename: SENCOR wettable powder, manufactured by Bayer Crop Science) or water dispersible granules containing pyroxasulfone as the active ingredient (tradename: Sakura, manufactured by Bayer Crop Science) were diluted with water (in an amount corresponding to 200 liter per hectare) containing 0.5 vol % of an agricultural spreader (tradename: Destiny HC, manufactured by Winfield Solutions, LLC.) and sprayed by a small spray gun (model: W-101-132G, manufactured by ANEST IWATA Corporation). Seeds of wheat (cultivar: Norin 61, manufactured by Asahi Noen Seed Co., Ltd.) were sown in the pot after spraying. On the 22nd day after the sowing, the above-ground part of the wheat was reaped, and its weight was measured to obtain the raw weight.

[5] = system: goosegrass (Eleusine indica); assay: (10) Herbicidal effect test, pot, spray at 6.5 to 7.8 leaf stage; details: 13th day after spraying
Text: as §2
Upland soil was put in a 1/1,000,000 hectare pot, and seeds of goosegrass (Eleusine indica) were sown. When the goosegrass reached 6.5 to 7.8 leaf stage, a water-based suspension containing tiafenacil as the active ingredient, prepared by a conventional method for preparing a water-based suspension, and an emulsifiable concentrate containing S-metolachlor as the active ingredient (tradename: Dual Gold, manufactured by Syngenta), a wettable powder containing metribuzin as the active ingredient (tradename: SENCOR wettable powder, manufactured by Bayer Crop Science) or water dispersible granules containing pyroxasulfone as the active ingredient (tradename: Sakura, manufactured by Bayer Crop Science) were diluted with water (in an amount corresponding to 200 liter per hectare) containing 0.5 vol % of an agricultural spreader (tradename: Destiny HC, manufactured by Winfield Solutions, LLC.) and sprayed by a small spray gun (model: W-101-132G, manufactured by ANEST IWATA Corporation). On the 13th day after spraying, the state of growth of the goosegrass was visually observed, and the growth inhibition rate (%) was obtained in accordance with the evaluation standards described in the above (1) herbicidal effect test, and the results are shown in Table 10. Further, the expected value of the growth inhibition rate (%) was calculated in accordance with the Colby's formula described in the above (1) herbicidal effect test, and the results are also shown in Table 10.

CC(C)N(C(=O)SCC(Cl)=C(Cl)Cl)C(C)C [tri-allate]
Raw weight (g) of forage corn ([1]; Dose 75 g/ha): 2.6 g
Raw weight (g) of forage corn ([1]; Dose 625 g/ha): 2.2 g
Raw weight (g) of forage corn ([1]; Dose 1250 g/ha): 2.5 g
inhibition at 75 g/ha ([2]; Erigeron canadensis, Dose 75 g/ha, read-out: Growth inhibition rate (%) Measured value): 0%
inhibition at 625 g/ha ([2]; Erigeron canadensis, Dose 625 g/ha, read-out: Growth inhibition rate (%) Measured value): 5%
inhibition at 1250 g/ha ([2]; Erigeron canadensis, Dose 1250 g/ha, read-out: Growth inhibition rate (%) Measured value): 3%

Cn1nc(C(F)(F)F)c(CS(=O)(=O)C2=NOC(C)(C)C2)c1OC(F)F [pyroxasulfone]
Raw weight (g) of forage corn ([3]; Dose 7.5 g/ha): 5.8 g
Raw weight (g) of forage corn ([3]; Dose 125 g/ha): 3.3 g
Raw weight (g) of forage corn ([3]; Dose 250 g/ha): 3.8 g
Raw weight (g) of wheat ([4]; Dose 37.5 g/ha): 1.2 g
inhibition at 7.5 g/ha ([5]; Eleusine indica, Dose 7.5 g/ha, read-out: Growth inhibition rate (%) Measured value): 0%
inhibition at 250 g/ha ([5]; Eleusine indica, Dose 250 g/ha, read-out: Growth inhibition rate (%) Measured value): 2%
inhibition at 500 g/ha ([5]; Eleusine indica, Dose 500 g/ha, read-out: Growth inhibition rate (%) Measured value): 2%

CCOCCN(C(=O)CCl)C(=C(C)C)c1ccccc1 [pethoxamid]
Raw weight (g) of forage corn ([1]; Dose 93.8 g/ha): 3.4 g
Raw weight (g) of forage corn ([1]; Dose 375 g/ha): 2.2 g
Raw weight (g) of forage corn ([1]; Dose 750 g/ha): 3.6 g
Growth inhibition rate (%) Measured value ([2]; Dose 93.8 g/ha): 0%
Growth inhibition rate (%) Measured value ([2]; Dose 375 g/ha): 0%
Growth inhibition rate (%) Measured value ([2]; Dose 750 g/ha): 0%

COC(=O)CCNC(=O)C(C)Sc1cc(-n2c(=O)cc(C(F)(F)F)n(C)c2=O)c(F)cc1Cl (centres unmarked) [tiafenacil]
Raw weight (g) of forage corn ([3]; Dose 6.25 g/ha): 3.2 g
Raw weight (g) of wheat ([4]; Dose 3 g/ha): 2.3 g
Raw weight (g) of forage corn ([1]; Dose 6.25 g/ha): 3.9 g
Growth inhibition rate (%) Measured value ([5]; Dose 6.25 g/ha): 30%
Growth inhibition rate (%) Measured value ([2]; Dose 6.25 g/ha): 17%

CSc1nnc(C(C)(C)C)c(=O)n1N [metribuzin]
Raw weight (g) of forage corn ([3]; Dose 225 g/ha): 4.7 g
Raw weight (g) of forage corn ([3]; Dose 550 g/ha): 5.6 g
Raw weight (g) of wheat ([4]; Dose 150 g/ha): 2.5 g
inhibition at 9.38 g/ha ([5]; Eleusine indica, Dose 9.38 g/ha, read-out: Growth inhibition rate (%) Measured value): 7%
inhibition at 550 g/ha ([5]; Eleusine indica, Dose 550 g/ha, read-out: Growth inhibition rate (%) Measured value): 68%
inhibition at 1100 g/ha ([5]; Eleusine indica, Dose 1100 g/ha, read-out: Growth inhibition rate (%) Measured value): 72%

COC[C@H](C)N(C(=O)CCl)c1c(C)csc1C [dimethenamid-P]
Growth inhibition rate (%) Measured value ([2]; Dose 60 g/ha): 0%
Growth inhibition rate (%) Measured value ([2]; Dose 375 g/ha): 0%
Growth inhibition rate (%) Measured value ([2]; Dose 750 g/ha): 0%

CCc1cccc(C)c1N(C(=O)CCl)[C@@H](C)COC [S-metolachlor]
Raw weight (g) of forage corn ([3]; Dose 7.5 g/ha): 3.5 g
Raw weight (g) of forage corn ([3]; Dose 750 g/ha): 3.1 g
Growth inhibition rate (%) Measured value ([5]; Dose 7.5 g/ha): 7%
Growth inhibition rate (%) Measured value ([5]; Dose 375 g/ha): 7%
Growth inhibition rate (%) Measured value ([5]; Dose 750 g/ha): 7%
